Values quoted from earlier work as cited in patent US10201964B2, “Treatment for reducing the toxicity of 3D-printed parts” (The Regents of the University of California, priority 2015, dated 2019).

Columns and labels:
[1] = when used as scaffolds

In the case of `C=CC(=O)O` [acrylic acid], the “toxic effects on embryonic and fetal development” value (rat fetuses) is listed as “toxic effects on embryonic and fetal development in rat fetuses”.
For `C=C(C)C(=O)O` [methacrylic acid], the “toxic effects on embryonic and fetal development” value (rat fetuses) is given as “toxic effects on embryonic and fetal development in rat fetuses”.
For `C=C(C)C(=O)OC` [methylmethacrylate], the cardiovascular failure [1] is given as “associated with irreversible cardiovascular failure”.
